Measurements from patent US11179348B2, “Combination comprising pterostilbene for the treatment of cancer” (FUNDACIÓN UNIVERSIDAD CATÓLICA DE VALENCIA SAN VICENTE …, priority 2015, dated 2021).
Like-named read-outs stand apart in the source and are kept apart here. Marks after values point to notes of the source that are not given here.

Assays:
[1] = system: A2058 melanoma cells; test: Nrf2- and redox state-related enzyme activities and metabolites in A2058 cells growing in vivo; parameters: species or system human; conditions: A2058, in vivo +Pter, day 35
Protocol: Transfection of the Red Fluorescence Protein.
First the pDsRed-2 vector (Clontech Laboratories Inc., Palo Alto, Calif.) was used, as previously described for A375 melanoma cells (Mena, S. et al. J Transl Med 10, 8 (2012)), to engineer A2058, MeWo and MelJuso melanoma clones stably expressing the RFP. Isolation of A2058-RFP, MeWo-RFP or MelJuso-RFP cells from the growing xenografts was performed by laser microdissection and high-performance cell sorting as previously described in detail (Mena, S. et al. J Transl Med 10, 8 (2012)).
To measure enzyme activity, isolated tumor cells were homogenized in 0.1 M phosphate buffer (pH 7.2) at 4° C. GCL and GSS activities were measured as described previously (Obrador, E. et al. Hepatology 35, 74-81 (2002)). GPX (selenium dependent) activity was measured as described by Flohé and Gunzler (Flohe, L. & Gunzler, W. A. Methods Enzymol 105, 114-121 (1984)) using H2O2 as a substrate. GSR activity was determined as described by Akerboom and Sies (Akerboom, T. P. et al, Bull Eur Physiopathol Respir 17 Suppl, 221-227 (1981)). GGT activity was measured as described previously (Obrador, E. et al. Hepatology 35, 74-81 (2002)). GST activity was measured using an assay kit from Sigma. TXNRD activity, defined by the concentration of sodium-lipoate (disulfide) reduced to dehydrolipoate (dithiol) per milligram protein, was measured as previously described (Javvadi, P. et al. Cancer Res 70, 1941-1950 (2010)). SOD activity was measured as described by Flohé and Otting (Flohe, L. & Otting, F. Methods Enzymol 105, 93-104 (1984).) using 2 mM cyanide in the assay medium to distinguish mangano-type enzyme (SOD2) from the cuprozinc type (SOD1). CAT activity was analyzed as described by Aebi (Aebi, H. Methods Enzymol 105, 121-126 (1984)). NOX activity was measured by chemiluminescence following the methodology of Wind et al. (Wind, S. et al. Comparative pharmacology of chemically distinct NADPH oxidase inhibitors. Br J Pharmacol 161, 885-898 (2010)). Protein concentration was determined with the Pierce BCA protein assay (Fisher Scientific, Waltham, Mass.).
Measurement of H2O2 and O2^⋅−.
Quantitative measurement of H2O2 and flow cytometry determination of O2^⋅− generation were performed as previously described (Benlloch, M. et al. J Biol Chem 281, 69-79 (2006)).
GSH, GSSG, NADP^+ and NADPH Determination.
GSH and GSSG were determined, following procedures previously described (Obrador, E. et al. PLoS One 9, e96466 (2014)), by LC/MS using the same equipment described above for pterostilbene determination. Cell processing was performed according to published methodology, where rapid N-ethylmaleimide derivatization was used to prevent GSH auto-oxidation (Asensi, M. et al. Anal Biochem 217, 323-328 (1994)). NADP^+ and NADPH were quantitated using an assay kit from Sigma (St. Louis, Mo.).

[2] = Pter and metabolite levels in plasma, tumor, brain and pituitary after i.v. administration (LC-MS/MS); assay type: in vivo, mice; conditions: for highest concentration in plasma / highest concentration in tumors: 5 min after i.v. 30 mg Pter/kg
Protocol: Determination of Pter and its Metabolites by High-Pressure Liquid Chromatography and Mass Spectrometry (LC-MS/MS).
LC-MS/MS was carried out, as previously described (Ferrer, P. et al. Neoplasia 7, 37-47 (2005); Azzolini, M. et al. Mol Nutr Food Res 58, 2122-2132 (2014)) in detail, using a TSQ Vantage™ Triple Quadrupole Mass Spectrometer (Thermo Scientific, Waltham, Mass.) equipped with a Shimadzu LC-10ADvp. pump and a SLC-10Avp. controller system with a SIL-10ADvp. autoinjector.

[3] = system: A549 lung adenocarcinoma; test: In vivo growth of A549 lung cancer xenografts; parameters: species or system human; conditions: A549, day 35

COc1cc(/C=C/c2ccc(O)cc2)cc(OC)c1 [Pter, trans-3,5-dimethoxy-4′-hydroxystilbene]
CAT [1]: 1.7 ± 0.3 mU/10^6 cells | G6PDH [1]: 305 ± 78 mU/10^6 cells | GCL [1]: 58 ± 17 mU/10^6 cells | GGT [1]: 19.6 ± 2.7 mU/10^6 cells | GPX [1]: 3.9 ± 1.1 mU/10^6 cells | GSH [1]: 10.5 ± 2.1 nmol/10^6 cells | GSH/GSSG [1]: 35 ± 5 | GSR [1]: 6.1 ± 1.6 mU/10^6 cells | GSS [1]: 8.5 ± 2.0 mU/10^6 cells | GSSG [1]: 0.3 ± 0.1 nmol/10^6 cells | GST [1]: 7.5 ± 1.3 mU/10^6 cells | H2O2 [1]: 0.7 ± 0.2 nmol/10^6 cells × min | IDH [1]: 1.2 ± 0.4 U/10^6 cells | ME [1]: 43 ± 12 mU/10^6 cells | NADPH [1]: 0.06 ± 0.02 nmol/mg prot | NADPH/NADP^+ [1]: 1.2 ± 0.3 | NADP^+ [1]: 0.05 ± 0.01 nmol/mg prot | NOX [1]: 177 ± 4.5 R.L.U./10^6 cells | O2^− [1]: 3.9 ± 0.6 ΔFL1, a.u. | SOD1 [1]: 0.6 ± 0.2 U/10^6 cells | SOD2 [1]: 0.1 ± 0.05 U/10^6 cells | TXN [1]: 0.5 ± 0.1 μg/10^6 cells | TXNRD [1]: 0.7 ± 0.2 U/10^6 cells | approx. mean level in the hypophysis ([2]; 10-30 min after i.v. 30 mg/kg): ~15 µM | level in whole brain ([2]; 60 min after i.v. 30 mg/kg): approx. 1 nmol/g | level in whole brain ([2]; 120 min after i.v. 30 mg/kg): non-detectable levels | highest concentration in plasma ([2]; A2058-bearing mice): 112 ± 17 µM | highest concentration in tumors ([2]; A2058 tumors): 28 ± 7 µM | highest concentration in tumors ([2]; MeWo tumors): 33 ± 7 µM | highest concentration in plasma ([2]; MeWo-bearing mice): 116 ± 23 µM | highest concentration in tumors ([2]; MelJuso tumors): 25 ± 7 µM | highest concentration in plasma ([2]; MelJuso-bearing mice): 98 ± 13 µM | levels in plasma after the last time point ([2]; after 480 min): undetectable | levels in the hypophysis compared with the whole brain ([2]; after i.v. 30 mg/kg): significantly higher | lowest concentration in plasma ([2]; at 240-480 min after i.v. 30 mg Pter/kg): approx. 1 μM | half-life ([2]; female, nu/nu nude, mouse, melanoma tumor, iv, 30 mg/kg, melanoma tumors, 30 mg Pter/kg i.v., read-out: half-life in the melanoma tumors): 36 to 40 min | half-life ([2]; female, nu/nu nude, mouse, plasma, iv, 30 mg/kg, B16-F1-bearing mice, Pter 30 mg/kg i.v., read-out: half-life in circulating plasma): 61.2 min | half-life ([2]; female, nu/nu nude, mouse, plasma, iv, 30 mg/kg, melanoma-bearing mice, 30 mg Pter/kg i.v., read-out: half-life in circulating plasma): 70 to 73 min | half-life ([2]; female, nu/nu nude, mouse, tumor (B16-F1), iv, 30 mg/kg, B16-F1 tumors, Pter 30 mg/kg i.v., read-out: half-life in the tumors): 29.3 min | concentration at 180 min ([2]; female, nu/nu nude, mouse, tumor, iv, 30 mg/kg, at 180 min after i.v. 30 mg Pter/kg, read-out: lowest concentration in tumors): ~1000 nM | approximate mean concentration within the tumor ([2]; first hour after i.v. 30 mg Pter/kg): ~15 µM | main Pter-derived metabolite generated in vivo (plasma) ([2]; i.v. 30 mg Pter/kg): pterostilbene-4′-sulfate (Pter-S) | Tumor vol. [3]: 223 ± 88* mm^3
